Reference: article PMC4117758 (2014)

What was measured:
[1] = test system: Hum57-M3 (DNA, G4) GGGTTAGGGTTAGGGTTAGGGTTGAGTGTGAGTGTAGGGTTAGGGTTAGGGTTAGGG; test: UV-vis absorption titration, Scatchard; details: 150 mM KCl; 10 mM Tris-HCl pH 7.4, 1 mM Na2EDTA, 400 ml/l PEG 200; 3 μM compound; n = 0.50
[2] = test system: Oxy28 (DNA, G4) GGGGTTTTGGGGTTTTGGGGTTTGGGG; test: UV-vis absorption; details: 150 mM KCl; 10 mM Tris-HCl pH 7.4, 1 mM Na2EDTA, 400 ml/l PEG 200; DNA up to 10:1 over compound
[3] = test system: Hum51 (DNA, G4) GGGTTAGGGTTAGGGTTAGGGTTAGGGTTAGGGTTAGGGTTAGGGTTAGGG; test: UV-vis absorption titration, Scatchard; details: 150 mM KCl; 10 mM Tris-HCl pH 7.4, 1 mM Na2EDTA, 400 ml/l PEG 200; 3 μM compound; n = 0.50
[4] = test system: LD (DNA, duplex) GCGCAATTGCGC; test: UV-vis absorption; details: 150 mM KCl; 10 mM Tris-HCl pH 7.4, 1 mM Na2EDTA, 400 ml/l PEG 200; 20 μM DNA
[5] = test system: Hum57-M1 (DNA, G4) GGGTTAGGGTTAGGGTTAGGGTTAGGGTTAGGGTTAGGGTTAGGGTGTGAGTGTGAG; test: UV-vis absorption titration, Scatchard; details: 150 mM KCl; 10 mM Tris-HCl pH 7.4, 1 mM Na2EDTA, 400 ml/l PEG 200; 3 μM compound; n = 0.48
[6] = test system: ssDNA1 (DNA, single strand) GAGCTCTCGAAAGAGCTCCGATTA; test: UV-vis absorption; details: 150 mM KCl; 10 mM Tris-HCl pH 7.4, 1 mM Na2EDTA, 400 ml/l PEG 200; 20 μM DNA
[7] = test system: M3Q (DNA, G4) GAGGGAGGGAGGGAGAGGGA; test: UV-vis absorption; details: 150 mM KCl; 10 mM Tris-HCl pH 7.4, 1 mM Na2EDTA, 400 ml/l PEG 200; DNA up to 10:1 over compound
[8] = test system: Hum57 (DNA, G4) GGGTTAGGGTTAGGGTTAGGGTTAGGGTTAGGGTTAGGGTTAGGGTTAGGGTTAGGG; test: UV melting at 295 nm; details: 50 mM KCl; 10 mM Tris-HCl pH 7.4, 1 mM Na2EDTA, no PEG; 5 μM compound, 5 μM DNA; derived from two Tm
[9] = test system: Hum51-M2 (DNA, G4) GGGTTAGGGTTAGGGTTAGGGTTGAGTGTAGGGTTAGGGTTAGGGTTAGGG; test: UV-vis absorption titration, Scatchard; details: 150 mM KCl; 10 mM Tris-HCl pH 7.4, 1 mM Na2EDTA, 400 ml/l PEG 200; 3 μM compound; n = 0.46
[10] = test system: C-MYC (DNA, G4) TGAGGGTGGGAGGGTGGGAA; test: UV-vis absorption; details: 150 mM KCl; 10 mM Tris-HCl pH 7.4, 1 mM Na2EDTA, 400 ml/l PEG 200; DNA up to 10:1 over compound
[11] = test system: KRAS (DNA, G4) AGGGCGGTGGGAAGAGGGAAGAGGGGGAGG; test: UV-vis absorption; details: 150 mM KCl; 10 mM Tris-HCl pH 7.4, 1 mM Na2EDTA, 400 ml/l PEG 200; DNA up to 10:1 over compound
[12] = test system: Hum21 (DNA, G4) GGGTTAGGGTTAGGGTTAGGG; test: UV melting at 295 nm; details: 50 mM KCl; 10 mM Tris-HCl pH 7.4, 1 mM Na2EDTA, no PEG; 5 μM compound, 5 μM DNA; derived from two Tm
[13] = test system: Hum51-M1 (DNA, G4) GGGTTAGGGTTAGGGTTAGGGTTAGGGTTAGGGTTAGGGTTAGGGTGTGAG; test: UV-vis absorption titration, Scatchard; details: 150 mM KCl; 10 mM Tris-HCl pH 7.4, 1 mM Na2EDTA, 400 ml/l PEG 200; 3 μM compound; n = 0.45
[14] = test system: Hum45 (DNA, G4) GGGTTAGGGTTAGGGTTAGGGTTAGGGTTAGGGTTAGGGTTAGGG; test: UV-vis absorption titration, Scatchard; details: 150 mM KCl; 10 mM Tris-HCl pH 7.4, 1 mM Na2EDTA, 400 ml/l PEG 200; 3 μM compound; n = 0.46
[15] = test system: Hum69 (DNA, G4) GGGTTAGGGTTAGGGTTAGGGTTAGGGTTAGGGTTAGGGTTAGGGTTAGGGTTAGGGTTAGGGTTAGGG; test: UV melting at 295 nm; details: 50 mM KCl; 10 mM Tris-HCl pH 7.4, 1 mM Na2EDTA, no PEG; 5 μM compound, 5 μM DNA; derived from two Tm
[16] = test system: Hum45 (DNA, G4) GGGTTAGGGTTAGGGTTAGGGTTAGGGTTAGGGTTAGGGTTAGGG; test: UV melting at 295 nm; details: 50 mM KCl; 10 mM Tris-HCl pH 7.4, 1 mM Na2EDTA, no PEG; 5 μM compound, 5 μM DNA; derived from two Tm
[17] = test system: Hum69 (DNA, G4) GGGTTAGGGTTAGGGTTAGGGTTAGGGTTAGGGTTAGGGTTAGGGTTAGGGTTAGGGTTAGGGTTAGGG; test: UV-vis absorption titration, Scatchard; details: 150 mM KCl; 10 mM Tris-HCl pH 7.4, 1 mM Na2EDTA, 400 ml/l PEG 200; 3 μM compound; n = 0.52
[18] = test system: Hum63-M1 (DNA, G4) GGGTTAGGGTTAGGGTTAGGGTTAGGGTTAGGGTTAGGGTTAGGGTGTGAGTGTGAGTGTGAG; test: UV-vis absorption titration, Scatchard; details: 150 mM KCl; 10 mM Tris-HCl pH 7.4, 1 mM Na2EDTA, 400 ml/l PEG 200; 3 μM compound; n = 0.46
[19] = test system: ssDNA2 (DNA, single strand) TAGAGCACACCTGTCCGTG; test: UV-vis absorption; details: 150 mM KCl; 10 mM Tris-HCl pH 7.4, 1 mM Na2EDTA, 400 ml/l PEG 200; 20 μM DNA
[20] = test system: Hum57-M2 (DNA, G4) GGGTTAGGGTTAGGGTTAGGGTTGAGTGTAGGGTTAGGGTTAGGGTTAGGGTGTGAG; test: UV-vis absorption titration, Scatchard; details: 150 mM KCl; 10 mM Tris-HCl pH 7.4, 1 mM Na2EDTA, 400 ml/l PEG 200; 3 μM compound; n = 0.47
[21] = test system: Hum51 (DNA, G4) GGGTTAGGGTTAGGGTTAGGGTTAGGGTTAGGGTTAGGGTTAGGGTTAGGG; test: UV melting at 295 nm; details: 50 mM KCl; 10 mM Tris-HCl pH 7.4, 1 mM Na2EDTA, no PEG; 5 μM compound, 5 μM DNA; derived from two Tm
[22] = test system: Hum21 (DNA, G4) GGGTTAGGGTTAGGGTTAGGG; test: UV-vis absorption titration, Scatchard; details: 150 mM KCl; 10 mM Tris-HCl pH 7.4, 1 mM Na2EDTA, 400 ml/l PEG 200; 3 μM compound; Ka undetected
[23] = test system: Hum63-M3 (DNA, G4) GGGTTAGGGTTAGGGTTAGGGTTGAGTGTGAGTGTAGGGTTAGGGTTAGGGTTAGGGTGTGAG; test: UV-vis absorption titration, Scatchard; details: 150 mM KCl; 10 mM Tris-HCl pH 7.4, 1 mM Na2EDTA, 400 ml/l PEG 200; 3 μM compound; n = 0.50
[24] = test system: Hum63-M2 (DNA, G4) GGGTTAGGGTTAGGGTTAGGGTTGAGTGTAGGGTTAGGGTTAGGGTTAGGGTGTGAGTGTGAG; test: UV-vis absorption titration, Scatchard; details: 150 mM KCl; 10 mM Tris-HCl pH 7.4, 1 mM Na2EDTA, 400 ml/l PEG 200; 3 μM compound; n = 0.50
[25] = test system: Hum63 (DNA, G4) GGGTTAGGGTTAGGGTTAGGGTTAGGGTTAGGGTTAGGGTTAGGGTTAGGGTTAGGGTTAGGG; test: UV-vis absorption titration, Scatchard; details: 150 mM KCl; 10 mM Tris-HCl pH 7.4, 1 mM Na2EDTA, 400 ml/l PEG 200; 3 μM compound; n = 0.52
[26] = test system: GC (DNA, duplex) GCGCGCGCGCGC; test: UV-vis absorption; details: 150 mM KCl; 10 mM Tris-HCl pH 7.4, 1 mM Na2EDTA, 400 ml/l PEG 200; 20 μM DNA
[27] = test system: Hum63 (DNA, G4) GGGTTAGGGTTAGGGTTAGGGTTAGGGTTAGGGTTAGGGTTAGGGTTAGGGTTAGGGTTAGGG; test: UV melting at 295 nm; details: 50 mM KCl; 10 mM Tris-HCl pH 7.4, 1 mM Na2EDTA, no PEG; 5 μM compound, 5 μM DNA; derived from two Tm
[28] = test system: Hum57 (DNA, G4) GGGTTAGGGTTAGGGTTAGGGTTAGGGTTAGGGTTAGGGTTAGGGTTAGGGTTAGGG; test: UV-vis absorption titration, Scatchard; details: 150 mM KCl; 10 mM Tris-HCl pH 7.4, 1 mM Na2EDTA, 400 ml/l PEG 200; 3 μM compound; n = 0.48
[29] = test system: AT (DNA, duplex) ATATATATATAT; test: UV-vis absorption; details: 150 mM KCl; 10 mM Tris-HCl pH 7.4, 1 mM Na2EDTA, 400 ml/l PEG 200; 20 μM DNA

- Ka [1]: 1.08e+06 M⁻¹
- binding [2]: no
- Ka [3]: 1.66e+06 M⁻¹
- binding [4]: no
- Ka [5]: 1.3e+06 M⁻¹
- binding [6]: no
- binding [7]: no
- melting temperature shift (ΔTm) [8]: 9.2 °C
- Ka [9]: 1.1e+06 M⁻¹
- binding [10]: no
- binding [11]: no
- melting temperature shift (ΔTm) [12]: 0.4 °C
- Ka [13]: 1.09e+06 M⁻¹
- Ka [14]: 1.11e+06 M⁻¹
- melting temperature shift (ΔTm) [15]: 6.6 °C
- melting temperature shift (ΔTm) [16]: 9.1 °C
- Ka [17]: 2.05e+06 M⁻¹
- Ka [18]: 2.08e+06 M⁻¹
- binding [19]: no
- Ka [20]: 1.38e+06 M⁻¹
- melting temperature shift (ΔT1/2) [21]: 8.0 °C
- binding [22]: no
- Ka [23]: 1.08e+06 M⁻¹
- Ka [24]: 1.1e+06 M⁻¹
- Ka [25]: 2.53e+06 M⁻¹
- binding [26]: no
- melting temperature shift (ΔTm) [27]: 8.9 °C
- Ka [28]: 1.05e+06 M⁻¹
- binding [29]: no
Structure (SMILES): C[N+]1(CCOc2cccc(-c3c4nc(c(-c5cccc(OCC[N+]6(C)CCCCC6)c5)c5ccc([nH]5)c(-c5cccc(OCC[N+]6(C)CCCCC6)c5)c5nc(c(-c6cccc(OCC[N+]7(C)CCCCC7)c6)c6ccc3[nH]6)C=C5)C=C4)c2)CCCCC1
